Source: PubChem BioAssay AID2060509 (Molecular Pharmacology Branch, DTP, NCI, 2025)

Tested on: 485176-168-R4-J1-PDC spheroids with HUVEC/MSC, viability
Assay: Anticancer human tumor 485176-168-R4-J1-PDC patient-derived pancreatic adenocarcinoma cell line growth inhibition [GQUAD]
Details: for IC50: curve of first compound; for viability, T/C: stronger effect = lower value
Source text: DNA G-quadruplex Stabilizer Agents in Combinations in Complex Spheroids
A high-throughput screen of multi-cell type tumor spheroids was designed to identify active combinations of DNA G-quadruplex stabilizer agents and targeted small molecules. Complex spheroids include a stromal component modeled by human endothelial cells (HUVEC) and fibroblasts modeled by human mesenchymal stem cells (MSCs). The concentration ranges selected for each drug and investigational agent were based upon clinically achievable concentrations if the clinical Cmax of the agent was known.
Compounds. The drugs and investigational agents: pidnarulex (CX-5461; NSC782164), APTO-253 (NSC789042), BRACO-19 (NSC847499), peposertib (NSC802822), ceralasertib (NSC780249), elimusertib (NSC800525), camonsertib (NSC841442), AZD-1390 (NSC803789), olaparib (NSC753686), talazoparib (NSC767125), ART-558 (NSC835418), sotorasib (NSC818433), MRTX-1133 (NSC836407), SN-38 (NSC673596), topotecan (NSC609699), etoposide (NSC141540), doxorubicin (NSC123127), gemcitabine (NSC613327), 5-fluorouracil (NSC19893), paclitaxel (NSC125973), vemurafenib (NSC761431), panobinostat (NSC761190), R-306465 (JNJ-16241199; NSC773264), adavosertib (NSC754352), TP-3654 (NSC805149), carboplatin (NSC241240), KSQ-4279 (NSC840948), and staurosporine (NSC755774) were obtained from the National Cancer Institute (NCI) Developmental Therapeutics Program Chemical Repository (34). The FDA-approved anticancer drug set is available from the NCI Developmental Therapeutics Program. […] The stock solutions were prepared in dimethyl sulfoxide (DMSO, Sigma-Aldrich, St. Louis, MO, cat. D2650) at 800-fold the tested concentration and stored at -70 degrees C prior to their use. All drugs and investigational agents were tested over a range starting from a high concentration at or near the clinical Cmax and decreasing in half-log increments. If the clinical Cmax for an agent had not been determined, the highest concentration tested was 10 microM.
2.3 Cell Culture. All cells were maintained in an incubator at 37 degrees C and 5% CO2 with 95% humidity. The PDC lines were cultured according to standard operating procedures established by the NCI PDMR. All PDCs were thawed and cultured in Matrigel-coated flasks prepared with a working solution of 1X Ham's F-12 nutrient mix, without supplementation (Invitrogen, cat. 11765054), 100 U/mL penicillin-streptomycin (Invitrogen, cat. 15140122), and 2.5% Matrigel (Corning Inc., cat. 354248) for the first three passages. The 857933-349-R-J2-PDC line was cultured in 6C/Colon 1B media, which includes advanced DMEM/F-12 (Thermo Fisher Scientific, cat. 12634028), 10 mM HEPES (Thermo Fisher Scientific, cat. 15630080), 1X GlutaMAX supplement (Thermo Fisher Scientific, cat. 35050061), 0.1 mg/mL primocin (InvivoGen, cat. ant-pm-2), 10% defined fetal bovine serum, heat inactivated (HyClone Laboratories Inc., cat. SH30070.03HI), 50% L-WRN conditioned media (ATCC, cat. CRL-3276), 1.25 mM N-Acetyl-L-cysteine (Sigma-Aldrich, cat. A9165), 10 mM nicotinamide (Sigma-Aldrich, cat. N0636), 1X B-27 supplement (Thermo Fisher Scientific, cat. 17504044), 1X N-2 supplement (Thermo Fisher Scientific, cat. 17502048), 10 microM Y-27632 dihydrochloride (Tocris Bioscience, cat. 1254), and 50 ng/mL human EGF recombinant protein (Thermo Fisher Scientific, cat. PHG0311). The 485176-168-R4-J1-PDC line was cultured in Panc media, which includes all 6C/Colon 1B media components plus 100 ng/mL human FGF-10 (Thermo Fisher Scientific, cat. 100-26), 500 nM SB-431542 (Selleckchem, cat. S1067), and gastrin (Tocris, cat. 3006).
[…]

[1] = second compound 0.0316 µM, first compound 0.0316 µM
[2] = second compound 0.0316 µM, first compound 0.1 µM
[3] = second compound 0.0316 µM, first compound 0.316 µM
[4] = second compound 0.0316 µM, first compound 1 µM
[5] = second compound 0.0316 µM, first compound 3.16 µM
[6] = second compound 0.0316 µM, first compound 10 µM
[7] = second compound 0.1 µM, first compound 0.0316 µM
[8] = second compound 0.1 µM, first compound 0.1 µM
[9] = second compound 0.1 µM, first compound 0.316 µM
[10] = second compound 0.1 µM, first compound 1 µM
[11] = second compound 0.1 µM, first compound 3.16 µM
[12] = second compound 0.1 µM, first compound 10 µM
[13] = second compound 0.316 µM, first compound 0.0316 µM
[14] = second compound 0.316 µM, first compound 0.1 µM
[15] = second compound 0.316 µM, first compound 0.316 µM
[16] = second compound 0.316 µM, first compound 1 µM
[17] = second compound 0.316 µM, first compound 3.16 µM
[18] = second compound 0.316 µM, first compound 10 µM
[19] = second compound 1 µM, first compound 0.0316 µM
[20] = second compound 1 µM, first compound 0.1 µM
[21] = second compound 1 µM, first compound 0.316 µM
[22] = second compound 1 µM, first compound 1 µM
[23] = second compound 1 µM, first compound 3.16 µM
[24] = second compound 1 µM, first compound 10 µM
[25] = second compound 3.16 µM, first compound 0.0316 µM
[26] = second compound 3.16 µM, first compound 0.1 µM
[27] = second compound 3.16 µM, first compound 0.316 µM
[28] = second compound 3.16 µM, first compound 1 µM
[29] = second compound 3.16 µM, first compound 3.16 µM
[30] = second compound 3.16 µM, first compound 10 µM
[31] = second compound 10 µM, first compound 0.0316 µM
[32] = second compound 10 µM, first compound 0.1 µM
[33] = second compound 10 µM, first compound 0.316 µM
[34] = second compound 10 µM, first compound 1 µM
[35] = second compound 10 µM, first compound 3.16 µM
[36] = second compound 10 µM, first compound 10 µM
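Also: spheroids exposed to compounds for seven days before readout.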
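For viability, T/C in this document: percent viability relative to DMSO vehicle control wells as 100%.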

CC(C)n1c(=O)n(C)c2cnc3cc(F)c(-c4ccc(OCCCN5CCCCC5)nc4)cc3c21 + CN(C)c1ccc(Nc2c3ccc(NC(=O)CCN4CCCC4)cc3nc3cc(NC(=O)CCN4CCCC4)ccc23)cc1
IC50 (second compound 0.0316 µM): > 10000 nM
IC50 (second compound 0.1 µM): > 10000 nM
IC50 (second compound 0.316 µM): > 10000 nM
IC50 (second compound 1 µM): > 10000 nM
IC50 (second compound 3.16 µM): > 10000 nM
IC50 (second compound 10 µM): 5420 nM
viability, T/C [1]: 89.8%
viability, T/C [2]: 81.3%
viability, T/C [3]: 104%
viability, T/C [4]: 89.7%
viability, T/C [5]: 93.3%
viability, T/C [6]: 71.7%
viability, T/C [7]: 92.7%
viability, T/C [8]: 91.1%
viability, T/C [9]: 104%
viability, T/C [10]: 95.7%
viability, T/C [11]: 94.7%
viability, T/C [12]: 68.4%
viability, T/C [13]: 111%
viability, T/C [14]: 90.4%
viability, T/C [15]: 94.7%
viability, T/C [16]: 98.2%
viability, T/C [17]: 94.5%
viability, T/C [18]: 82.1%
viability, T/C [19]: 111%
viability, T/C [20]: 95.9%
viability, T/C [21]: 80.6%
viability, T/C [22]: 79.7%
viability, T/C [23]: 71.2%
viability, T/C [24]: 77.8%
viability, T/C [25]: 81.6%
viability, T/C [26]: 91.7%
viability, T/C [27]: 86.6%
viability, T/C [28]: 85.2%
viability, T/C [29]: 79.1%
viability, T/C [30]: 59.9%
viability, T/C [31]: 81.7%
viability, T/C [32]: 65.7%
viability, T/C [33]: 71.5%
viability, T/C [34]: 64.5%
viability, T/C [35]: 64.6%
viability, T/C [36]: 36.3%

CC1COCCN1c1cc(-c2ccnn2C)c2ccnc(-c3ccn[nH]3)c2n1 (centres undefined) + CN(C)c1ccc(Nc2c3ccc(NC(=O)CCN4CCCC4)cc3nc3cc(NC(=O)CCN4CCCC4)ccc23)cc1
IC50 (second compound 0.0316 µM): 92.9 nM
IC50 (second compound 0.1 µM): 117 nM
IC50 (second compound 0.316 µM): 111 nM
IC50 (second compound 1 µM): 89.8 nM
IC50 (second compound 3.16 µM): 70.2 nM
IC50 (second compound 10 µM): 58 nM
viability, T/C [1]: 83.6%
viability, T/C [2]: 47.7%
viability, T/C [3]: 17%
viability, T/C [4]: 11.2%
viability, T/C [5]: 10.4%
viability, T/C [6]: 11.1%
viability, T/C [7]: 84.2%
viability, T/C [8]: 54.9%
viability, T/C [9]: 18.7%
viability, T/C [10]: 11.8%
viability, T/C [11]: 10.7%
viability, T/C [12]: 8.57%
viability, T/C [13]: 81.2%
viability, T/C [14]: 52.9%
viability, T/C [15]: 20.2%
viability, T/C [16]: 10.3%
viability, T/C [17]: 9.46%
viability, T/C [18]: 10.1%
viability, T/C [19]: 87.5%
viability, T/C [20]: 45.9%
viability, T/C [21]: 23.8%
viability, T/C [22]: 12.3%
viability, T/C [23]: 11.4%
viability, T/C [24]: 9.79%
viability, T/C [25]: 64.7%
viability, T/C [26]: 43.5%
viability, T/C [27]: 17.4%
viability, T/C [28]: 12.6%
viability, T/C [29]: 10.6%
viability, T/C [30]: 11.3%
viability, T/C [31]: 61.1%
viability, T/C [32]: 39.8%
viability, T/C [33]: 23.9%
viability, T/C [34]: 13.3%
viability, T/C [35]: 11.4%
viability, T/C [36]: 9.08%
